Laboratory results published in ChEMBL document CHEMBL1201862, “PubChem BioAssay data set” (2004).
Calls of active or inactive are those of the source.

Legend:
[1] = biological target: 5-hydroxytryptamine receptor 1E (Homo sapiens, UniProt P28566); test: Counterscreen assay for S1P3 antagonists: Dose response cell-based high throughput screening assay to identify antagonists of the 5-Hydroxytryptamine Receptor Subtype 1E (5HT1E). [Related pubchem assays: 1429, 485 ]; type: functional
[2] = HEp-2 cell cytotoxicity, dose response, cytotoxicity control for RSV inhibitor project, HTS (AID 2410); type: functional; conditions: human respiratory syncytial virus
[3] = biological target: Sphingosine 1-phosphate receptor 3 (Homo sapiens, UniProt Q99500); test: Dose response cell-based high throughput screening assay for antagonists of the Sphingosine 1-Phosphate Receptor 3 (S1P3). [Related pubchem assays: 1429, 485 ]; type: functional
Sphingosine 1-phosphate receptor 3, sequence (Q99500 whole entry): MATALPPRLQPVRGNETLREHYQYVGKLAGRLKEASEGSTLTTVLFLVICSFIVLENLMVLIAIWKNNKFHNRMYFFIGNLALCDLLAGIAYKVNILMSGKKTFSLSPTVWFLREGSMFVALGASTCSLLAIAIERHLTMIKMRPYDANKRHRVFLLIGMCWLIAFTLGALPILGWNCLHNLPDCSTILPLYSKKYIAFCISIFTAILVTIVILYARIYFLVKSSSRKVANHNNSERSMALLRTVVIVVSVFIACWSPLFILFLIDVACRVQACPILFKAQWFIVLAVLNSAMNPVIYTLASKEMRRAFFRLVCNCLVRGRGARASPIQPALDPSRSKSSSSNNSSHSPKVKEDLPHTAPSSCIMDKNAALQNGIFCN

[4] = biological target: Cytochrome P450 3A4 (Homo sapiens, UniProt P08684); conditions: Potency;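 note: confirmatory qHTS run detecting inhibitors and substrates of CYP3A4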
Cytochrome P450 3A4, sequence (P08684 whole entry): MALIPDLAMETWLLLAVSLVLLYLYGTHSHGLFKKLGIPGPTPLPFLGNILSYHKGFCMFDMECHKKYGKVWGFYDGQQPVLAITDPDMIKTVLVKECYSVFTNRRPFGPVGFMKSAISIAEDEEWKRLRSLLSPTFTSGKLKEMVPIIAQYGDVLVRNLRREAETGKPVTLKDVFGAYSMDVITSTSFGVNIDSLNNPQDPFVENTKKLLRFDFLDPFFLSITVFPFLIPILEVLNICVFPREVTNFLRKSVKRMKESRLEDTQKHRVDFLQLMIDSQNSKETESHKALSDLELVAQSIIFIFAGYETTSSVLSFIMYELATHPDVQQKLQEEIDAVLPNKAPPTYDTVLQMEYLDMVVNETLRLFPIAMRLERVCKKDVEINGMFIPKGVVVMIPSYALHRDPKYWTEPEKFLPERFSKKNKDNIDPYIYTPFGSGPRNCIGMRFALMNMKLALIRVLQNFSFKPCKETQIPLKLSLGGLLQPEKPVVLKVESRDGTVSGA

[5] = biological target: Nonstructural protein 1 (Influenza A virus, UniProt Q194T2); type: functional, Influenza A virus (A/California/07/2009(H1N1))
Nonstructural protein 1, sequence (Q194T2 whole entry): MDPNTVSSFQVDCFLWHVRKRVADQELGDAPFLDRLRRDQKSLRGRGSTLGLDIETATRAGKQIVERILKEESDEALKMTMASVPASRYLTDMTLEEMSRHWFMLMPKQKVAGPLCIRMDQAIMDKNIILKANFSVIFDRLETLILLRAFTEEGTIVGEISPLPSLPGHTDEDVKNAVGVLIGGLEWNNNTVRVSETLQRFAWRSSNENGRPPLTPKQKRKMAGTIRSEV

[6] = inhibitors of Bluetongue virus cytopathic effect, confirmation, arbovirus, BSR cells (AID 1250); type: functional;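 note: protection from viral cytopathic effect measured as cell viability by ATP luminescence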
[7] = system: H9c2; test: cells; type: functional, cell-based; conditions: Rattus norvegicus, H9c2, Myocardium;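 note: confirmatory concentration-response retest of ultra-high-throughput screening hits for modulation of myocardial damage; cell death induced by hydrogen peroxide oxidative stress; compound pretreatment for 60 min then peroxide exposure for 2 h; potency is for protecting the cells against peroxide damage rather than for killing them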
[8] = biological target: Polyadenylate-binding protein 1 (Homo sapiens, UniProt P11940); test: PABP poly(A) RNA binding inhibitors, primary screen, biochemical, fluorescence polarization, uHTS (AID 2014)
Polyadenylate-binding protein 1, sequence (P11940 whole entry): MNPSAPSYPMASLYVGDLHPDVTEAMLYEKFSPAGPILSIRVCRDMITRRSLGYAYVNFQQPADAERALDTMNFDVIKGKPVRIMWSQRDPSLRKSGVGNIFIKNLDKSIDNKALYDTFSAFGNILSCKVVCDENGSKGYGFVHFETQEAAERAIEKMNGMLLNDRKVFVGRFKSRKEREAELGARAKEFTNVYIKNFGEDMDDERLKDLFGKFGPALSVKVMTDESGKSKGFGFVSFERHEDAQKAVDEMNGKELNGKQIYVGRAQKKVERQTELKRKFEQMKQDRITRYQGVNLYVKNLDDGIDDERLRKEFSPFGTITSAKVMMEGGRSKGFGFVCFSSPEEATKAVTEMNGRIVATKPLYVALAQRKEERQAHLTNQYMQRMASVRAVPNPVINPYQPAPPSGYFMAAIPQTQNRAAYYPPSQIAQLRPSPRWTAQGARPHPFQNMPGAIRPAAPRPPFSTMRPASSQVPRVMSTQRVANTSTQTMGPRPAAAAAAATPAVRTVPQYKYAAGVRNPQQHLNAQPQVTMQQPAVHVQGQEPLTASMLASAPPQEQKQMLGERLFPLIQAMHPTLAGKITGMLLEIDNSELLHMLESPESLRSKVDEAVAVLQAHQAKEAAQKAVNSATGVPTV

[9] = biological target: Eukaryotic translation initiation factor 4H (Homo sapiens, UniProt Q15056); test: human eIF4H binding inhibitors, primary screen, translation initiation inhibitor project, biochemical, uHTS, fluorescence polarization (AID 2012)
[10] = biological target: T1, Heat shock factor protein 1 (Mus musculus, UniProt P38532); test: inhibition of MG132-induced HSE-luciferase signal, confirmation, cell-based, NIH3T3, luminescence, dose retest (AID 2382); type: functional;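 note: NIH3T3 fibroblasts with HSF1-driven luciferase reporter stressed by proteasome inhibitor MG132; luminescence from HSF1-driven luciferase expression after 8 hours of MG132 stress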
T1 sequence (P38532 whole entry): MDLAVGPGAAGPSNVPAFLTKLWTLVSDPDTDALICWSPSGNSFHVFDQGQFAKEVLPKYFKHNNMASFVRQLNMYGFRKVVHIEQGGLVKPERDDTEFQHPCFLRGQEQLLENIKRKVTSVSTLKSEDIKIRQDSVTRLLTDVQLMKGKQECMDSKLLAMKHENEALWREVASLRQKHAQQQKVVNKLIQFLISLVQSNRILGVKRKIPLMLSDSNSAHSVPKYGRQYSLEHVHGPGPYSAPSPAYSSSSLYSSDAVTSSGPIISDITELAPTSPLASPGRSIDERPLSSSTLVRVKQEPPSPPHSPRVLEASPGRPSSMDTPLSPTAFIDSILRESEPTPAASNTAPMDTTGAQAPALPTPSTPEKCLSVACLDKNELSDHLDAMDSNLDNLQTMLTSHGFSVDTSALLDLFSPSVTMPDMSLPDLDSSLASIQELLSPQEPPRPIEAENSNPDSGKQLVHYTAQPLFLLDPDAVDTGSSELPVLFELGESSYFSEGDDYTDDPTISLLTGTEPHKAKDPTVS

[11] = biological target: Vasopressin V1a receptor (Homo sapiens, UniProt P37288); test: Counterscreen for Oxytocin Receptor (OXTR) agonists: Fluorescence-based cell-based high throughput dose response assay to identify agonists of the vasopressin 1 receptor (V1R). [Related pubchem assays: 2435 (Primary screen (OXTR agonists in singlicate)), 434991 (Counterscreen (V1R agonists in triplicate)), 2482 (Summary (OXTR agonists)) …; type: functional
Vasopressin V1a receptor, sequence (P37288 whole entry): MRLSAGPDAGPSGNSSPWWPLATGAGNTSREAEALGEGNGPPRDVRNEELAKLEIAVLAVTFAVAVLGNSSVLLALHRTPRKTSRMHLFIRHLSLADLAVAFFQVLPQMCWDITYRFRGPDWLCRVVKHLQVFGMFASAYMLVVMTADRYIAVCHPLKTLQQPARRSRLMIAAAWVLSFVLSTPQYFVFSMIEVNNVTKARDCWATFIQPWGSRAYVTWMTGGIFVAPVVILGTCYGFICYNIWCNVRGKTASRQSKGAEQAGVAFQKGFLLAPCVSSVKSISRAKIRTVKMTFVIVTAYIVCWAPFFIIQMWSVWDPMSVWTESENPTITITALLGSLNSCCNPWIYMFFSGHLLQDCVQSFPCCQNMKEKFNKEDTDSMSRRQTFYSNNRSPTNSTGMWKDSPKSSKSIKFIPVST

[12] = biological target: Oxytocin receptor (Homo sapiens, UniProt P30559); test: Fluorescence-based cell-based high throughput dose response assay for agonists of the Oxytocin Receptor (OXTR). [Related pubchem assays: 2435 (Primary screen (OXTR agonists in singlicate)), 434991 (Counterscreen (V1R agonists in triplicate)), 2482 (Summary (OXTR agonists)), 434963 (Confirmation screen (OXTR agonists in triplicate))]; type: functional
Oxytocin receptor, sequence (P30559 whole entry, the tested form may be a part): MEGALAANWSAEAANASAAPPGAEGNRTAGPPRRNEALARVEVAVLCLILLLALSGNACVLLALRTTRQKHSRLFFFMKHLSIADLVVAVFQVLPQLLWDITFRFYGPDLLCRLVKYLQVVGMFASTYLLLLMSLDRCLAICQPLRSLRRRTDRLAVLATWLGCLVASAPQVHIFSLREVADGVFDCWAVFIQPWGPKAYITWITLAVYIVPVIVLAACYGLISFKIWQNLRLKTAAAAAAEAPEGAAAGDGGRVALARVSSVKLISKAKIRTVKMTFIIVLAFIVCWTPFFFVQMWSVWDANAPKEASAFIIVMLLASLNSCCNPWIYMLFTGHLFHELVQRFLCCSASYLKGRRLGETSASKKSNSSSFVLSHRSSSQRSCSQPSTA

[13] = biological target: Photoreceptor-specific nuclear receptor (Homo sapiens, UniProt Q9Y5X4); type: functional, cell-based;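 note: CHO-S cells with Gal4-NCOR and VP16-NR2E3 two-hybrid luciferase reporter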
Photoreceptor-specific nuclear receptor, sequence (Q9Y5X4 whole entry, the tested form may be a part): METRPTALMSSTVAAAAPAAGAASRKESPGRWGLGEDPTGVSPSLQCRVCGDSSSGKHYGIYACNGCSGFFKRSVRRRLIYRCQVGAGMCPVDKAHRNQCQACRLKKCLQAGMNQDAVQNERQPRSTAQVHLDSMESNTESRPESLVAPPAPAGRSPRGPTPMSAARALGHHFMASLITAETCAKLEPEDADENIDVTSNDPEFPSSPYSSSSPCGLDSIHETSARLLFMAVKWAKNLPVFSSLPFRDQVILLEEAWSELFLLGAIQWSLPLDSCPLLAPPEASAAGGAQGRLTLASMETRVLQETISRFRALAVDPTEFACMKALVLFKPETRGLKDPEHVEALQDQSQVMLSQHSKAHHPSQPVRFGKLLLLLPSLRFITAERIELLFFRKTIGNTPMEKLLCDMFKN

[14] = cells; type: functional, cell-based
[15] = inhibitors of firefly luciferase expression or activity, dose response, H4 neuroglioma cells, luminescence (AID 1990); type: functional, cell-based
[16] = luciferase reporter signal reduction – luminescence, H4-C neuroglioblastoma cells, dose response (AID 2458); type: functional, cell-based;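 note: H4 neuroglioblastoma cells stably carrying a luciferase reporter gene fusion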
[17] = inhibitors of SNCA 5'UTR-driven reporter translation, confirmation, H4 neuroglioma cells, luminescence (AID 1988); type: functional, cell-based
[18] = Luminescence Cell-Based Dose Response HTS to Identify Inhibitors of 5'UTR Stem-Loop Driven Prion Protein mRNA Translation in H4 Neuroglioblastoma Cells. [Related pubchem assays: 1827 (Project Summary), 1813 (Primary HTS)]; type: functional
[19] = inhibitors of SNCA 5'UTR-driven translation, confirmation, luminescence, H4 neuroglioblastoma cells, dose confirmation (AID 2454); type: functional, cell-based;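 note: H4 neuroglioblastoma cells carrying an alpha-synuclein 5'UTR luciferase reporter; potency for inhibition of the luciferase signal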

5-hydroxytryptamine receptor 1E, sequence (P28566 whole entry): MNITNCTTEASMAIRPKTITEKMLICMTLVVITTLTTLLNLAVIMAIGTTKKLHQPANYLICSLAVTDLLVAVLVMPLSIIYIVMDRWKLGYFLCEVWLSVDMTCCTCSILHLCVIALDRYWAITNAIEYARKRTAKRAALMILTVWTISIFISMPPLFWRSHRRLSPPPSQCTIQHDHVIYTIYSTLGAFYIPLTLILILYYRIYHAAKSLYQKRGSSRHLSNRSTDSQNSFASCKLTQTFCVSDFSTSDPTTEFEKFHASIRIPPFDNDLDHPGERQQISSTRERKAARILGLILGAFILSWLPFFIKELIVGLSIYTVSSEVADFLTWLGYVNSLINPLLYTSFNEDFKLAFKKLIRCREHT

Question: Which IC50 [1] does the source give for `CCCC[C@@H]1C[C@H]1[C@@H](NC(=O)c1cccs1)c1ccc(Cl)cc1` here?
Answer: Its IC50 is 2.47 µM (active).

Question: And the CC50 [2]?
Answer: The CC50 was 20.8 µM (active).

Question: What about the IC50 [3] of the same compound?
Answer: Its IC50 is 1.21 µM (active).

Question: For `CN1C[C@@H]2C(c3ccccc3)C3(c4ccccc4)CC2(C3)[C@H]1c1ccccc1` (some centres undefined), which AC50 [4] is on record?
Answer: Its AC50 is 5.01 µM (inconclusive).

Question: For `CC(=O)Nc1ccc(C(=O)Nc2nc(-c3ccccn3)cs2)cc1`, which IC50 [5] is on record?
Answer: Its IC50 is 7.8 µM (active).

Question: What about the IC50 [6] of the same compound?
Answer: Its IC50 is 38 µM (active).

Question: And the IC50 [7]?
Answer: The IC50 was > 79 µM (inactive).

Question: Which IC50 [8] does the source give for `COc1ccccc1/N=C1/SCCCN1C` here?
Answer: Its IC50 is 3.57 µM (active).

Question: What about the IC50 [9] of the same compound?
Answer: Its IC50 is > 100 µM (inactive).

Question: And the EC50 [10]?
Answer: Its EC50 is > 195 µM (not active).

Question: For `Cc1ccccc1Cn1nnc(C(=O)Nc2cccc(C)c2C)c1N`, which EC50 [11] is on record?
Answer: The EC50 was > 29.9 µM (not active).

Question: What about the EC50 [12] of the same compound?
Answer: Its EC50 is > 29.9 µM (not active).

Question: What about the IC50 [13] of the same compound?
Answer: The IC50 was 39.8 µM (inactive).

Question: Which EC50 [14] does the source give for `CCC(C)(C)c1ccc(Oc2ccc(N)cc2)cc1` here?
Answer: Its EC50 is 0.482 µM (active).

Question: And the EC50 [15]?
Answer: The EC50 was < 0.1 µM (active).

Question: And the EC50 [16]?
Answer: The EC50 was 0.216 µM (active).

Question: And the EC50 [17]?
Answer: Its EC50 is < 0.1 µM (active).

Question: And the EC50 [18]?
Answer: Its EC50 is 0.432 µM (active).

Question: What about the EC50 [19] of the same compound?
Answer: Its EC50 is 0.476 µM (active).
